In assay [1] the target is T1, PCAF bromodomain (Homo sapiens, UniProt Q92831).
T1 construct: made in house
T1 sequence (Q92831 723-827 limits assumed): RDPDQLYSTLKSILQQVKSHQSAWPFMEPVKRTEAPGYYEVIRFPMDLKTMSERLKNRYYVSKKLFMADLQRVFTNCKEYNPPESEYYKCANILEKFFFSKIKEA
Nature of the assay: SPR (Biacore) of TINS fragment hits on immobilized PCAF. The assay is classed as binding. Particulars: for Kd: SPR, 20 °C, six concentrations, aqueous buffer without DMSO; for LE: from SPR KD and heavy atom count. On the procedure:
Recombinant PCAF was biotinylated on the N-terminal AVI tag in vivo. Purified, biotinylated PCAF was captured onto a NeutraAvidin-coated CM5 sensor chip surface in 20 mM sodium phosphate pH7.5, 150 mM NaCl, 2 mM DTT, and 0.05% P20 Tween. This buffer was subsequently used for all studies. The immobilization level was 10150 RU. All SPR experiments were performed using a Biacore T200 instrument at 20 °C. Fragment hits from TINS were directly solubilized in the running buffer. Each fragment was titrated at six different concentrations for KD determination. An acetyl-Lys 16 peptide derived from H4 was used to monitor the ligand binding capacity of the immobilized PCAF bromodomain at regular intervals.

In assay [2] the target is T2, PCAF bromodomain (Homo sapiens, UniProt Q92831).
T2 construct: The PCAF bromodomain (aa 715–831) containing an N-terminal His6-tag was recombinantly expressed in Escherichia coli Rosetta; His6 (N, cleaved yes); made in house; host or cells: Escherichia coli Rosetta
T2 sequence (Q92831 715-831): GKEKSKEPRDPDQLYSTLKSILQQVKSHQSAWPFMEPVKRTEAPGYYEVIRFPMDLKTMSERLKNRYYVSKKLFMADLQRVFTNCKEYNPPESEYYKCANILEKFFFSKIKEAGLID
Nature of the assay: Isothermal titration calorimetry (ITC) with PCAF. The class given is binding. The settings on record: from ITC Kd. (In general: ITC needs no label: the signal is the heat of the interaction.)

Here are results for 4 molecules from paper PMC4770306, “Structure-Based Identification of Inhibitory Fragments Targeting the p300/CBP-Associated Factor Bromodomain” (Journal of Medicinal Chemistry, 2016).

The Kd is a measure of binding affinity in units of concentration. The low end stands for a tighter complex, the high end for a looser complex. Consider `NC1CCN(C(=O)C2CC2)CC1` [compound 10], for which, in assay [1], the Kd was determined as 6.91 mM and the LE is recorded as 0.24.

In assay [1], `Cc1c(N)c(=O)n(-c2ccccc2)n1C` [compound 9] came in with a Kd of 2.68 mM and an LE of 0.23.

On to `Cc1nn(CCO)c2c1C(=O)CCC2` [compound 11], for which, in assay [1], the Kd worked out at 0.488 mM and the LE came to 0.32.

As for `CNC(=O)c1cc(OCC(=O)Nc2ccccc2)ccc1OC1CCOCC1` [compound 14, N-methyl-5-(2-oxo-2-(phenylamino)ethoxy)-2-((tetrahydro-2H-pyran-4-yl)oxy)benzamide], the “ligand efficiency (LE)” value in assay [2] is 0.24.
